The values that follow come from ChEMBL document CHEMBL5393444, “Sulfonamide derivatives as ctps1 inhibitors” (2022).

The structures appear in SMILES notation.

The target of one experiment is T1, CTP synthase 1 (Homo sapiens, UniProt P17812).
T1 sequence (P17812 whole entry): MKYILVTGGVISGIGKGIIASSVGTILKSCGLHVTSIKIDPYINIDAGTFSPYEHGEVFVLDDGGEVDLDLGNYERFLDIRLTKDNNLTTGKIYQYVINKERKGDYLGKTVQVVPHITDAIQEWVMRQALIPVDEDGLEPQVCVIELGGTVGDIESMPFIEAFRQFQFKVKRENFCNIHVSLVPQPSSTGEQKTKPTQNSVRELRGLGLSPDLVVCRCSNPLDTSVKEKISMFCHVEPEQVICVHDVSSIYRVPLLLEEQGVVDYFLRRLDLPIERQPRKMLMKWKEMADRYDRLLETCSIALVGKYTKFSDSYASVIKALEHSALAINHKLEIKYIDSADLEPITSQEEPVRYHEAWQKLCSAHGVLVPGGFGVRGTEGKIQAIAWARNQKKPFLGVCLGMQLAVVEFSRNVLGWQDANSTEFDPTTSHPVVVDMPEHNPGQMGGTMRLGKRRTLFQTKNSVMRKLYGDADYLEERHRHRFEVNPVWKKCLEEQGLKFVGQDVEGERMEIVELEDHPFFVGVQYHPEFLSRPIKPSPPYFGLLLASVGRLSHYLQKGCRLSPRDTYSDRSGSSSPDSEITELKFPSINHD
The experiment in a line: Inhibition of C-terminal FLAG-His8-tagged full length human CTPS1 preincubated for 10 mins followed by substrate addition by ADP-Glo assay. For orientation: ADP-Glo first removes unused ATP, then detects ADP through luciferase.

The species named for a further experiment is Homo sapiens. Briefly: Selectivity ratio of IC50 for human CTPS2 to IC50 for human CTPS1 by RapidFire/MS analysis.

`CCOc1cncc(-c2ccc(NC(=O)C3(c4ccnc(NS(=O)(=O)C5CC5)n4)CCC(F)(F)CC3)nc2)n1`: the IC50 on CTP synthase 1 was not above 100 nM. Moreover, the Ratio IC50 in the experiment filed under Homo sapiens is more than 60.

On CTP synthase 1, `CCOc1cncc(-c2ccc(NC(=O)C(CCOC)c3ccnc(NS(=O)(=O)C4CC4)n3)nc2)n1` (stereo not given) came in with an IC50 not above 100 nM. Moreover, in the experiment listed under Homo sapiens, the Ratio IC50 was more than 60.

In turn, `CCOc1cncc(-c2ccc(NC(=O)C(CCOC)c3ccnc(NS(=O)(=O)C4CC4)n3)cc2)n1` (stereo not given) had an IC50 at CTP synthase 1 not above 100 nM. Moreover, in the experiment listed under Homo sapiens, the Ratio IC50 was found to be 30.

The compound `CC(C)Oc1cncc(-c2ccc(NC(=O)Cc3ccnc(NS(=O)(=O)C4CC4)n3)cc2)n1` came in with a half-inhibitory concentration (IC50) against CTP synthase 1 not above 100 nM. In addition, the Ratio IC50 in the experiment filed under Homo sapiens is 30.

With `CCOc1cncc(-c2ccc(NC(=O)C(CC)c3ccnc(NS(=O)(=O)C4CC4)n3)cc2)n1` (stereo not given), the IC50 against CTP synthase 1 was not above 100 nM. Further, the Ratio IC50 in the experiment listed under Homo sapiens was 30.

At CTP synthase 1, `CCOc1cncc(-c2ccc(NC(=O)C(C)(CCOC)c3cncc(NS(=O)(=O)C4CC4)n3)nc2)n1` (stereo not given) displayed an IC50 not above 100 nM. For the same compound, in the experiment filed under Homo sapiens, the Ratio IC50 is more than 60.

On to `CCOc1cncc(-c2ccc(NC(=O)C(OC)c3ccnc(NS(=O)(=O)C4CC4)n3)cc2)n1` (stereo not given), for which the half-inhibitory concentration (IC50) against CTP synthase 1 was not above 100 nM. In the experiment filed under Homo sapiens, the Ratio IC50 was 2.

Regarding `CCOc1cncc(-c2cnc(NC(=O)C(CC)c3ccnc(NS(=O)(=O)C4CC4)n3)c(C)c2)n1` (stereo not given), the IC50 against CTP synthase 1 is not above 100 nM. Moreover, the Ratio IC50 in the experiment listed under Homo sapiens turned out to be 2.

As to `CCOc1cncc(-c2ccc(NC(=O)C(C)(C)c3cncc(NS(=O)(=O)C4CC4)n3)cc2)n1`, the IC50 at CTP synthase 1 was not above 100 nM. In addition, the Ratio IC50 in the experiment listed under Homo sapiens was more than 60.

Consider `CCOc1cncc(-c2ccc(NC(=O)C(CC)c3ccnc(NS(=O)(=O)C4CC4)n3)c(C)c2)n1` (stereo not given), for which the IC50 against CTP synthase 1 was not above 100 nM. Also, in the experiment listed under Homo sapiens, the Ratio IC50 was 2.

With `CCC(C(=O)Nc1ccc(-c2cncc(C(F)(F)F)n2)cc1)c1ccnc(NS(=O)(=O)C2CC2)n1` (stereo not given), in the experiment filed under Homo sapiens, the Ratio IC50 is 2.

Turning to `CCOc1cncc(-c2ccc(NC(=O)C(C)(OC)c3cncc(NS(=O)(=O)C4CC4)n3)nc2)n1` (stereo in doubt; form 2), the Ratio IC50 in the experiment filed under Homo sapiens came to 30.

As to `O=C(Cc1ccnc(NS(=O)(=O)C2CC2)n1)Nc1ccc(-c2cccnc2)cc1`, the Ratio IC50 in the experiment listed under Homo sapiens came out at 30.

Regarding `CC(C)(C(=O)Nc1ccc(-c2cncc(C3CC3)n2)cn1)c1ccnc(NS(=O)(=O)C2CC2)n1`, the Ratio IC50 in the experiment filed under Homo sapiens came to 30.

On to `CCOc1cncc(-c2ccc(NC(=O)C(F)(CC)c3cncc(NS(=O)(=O)C4CC4)n3)nc2)n1` (stereo in doubt; form 2), for which the Ratio IC50 in the experiment filed under Homo sapiens is more than 60.

As to `CCC(C(=O)Nc1ccc(-c2cncc(Cl)c2)cc1)c1ccnc(NS(=O)(=O)C2CC2)n1` (stereo not given), the Ratio IC50 in the experiment listed under Homo sapiens was found to be 2.

`CCOc1cncc(-c2ccc(NC(=O)C(F)(CC)c3cncc(NS(=O)(=O)C4CC4)n3)nc2)n1` (stereo in doubt; form 1): in the experiment listed under Homo sapiens, the Ratio IC50 was determined as 30.

As to `CCOc1cncc(-c2ccc(NC(=O)C(CC)c3cccc(NS(=O)(=O)C4CC4)n3)cc2)n1` (stereo not given), the Ratio IC50 in the experiment filed under Homo sapiens is 30.

Regarding `CCOc1cncc(-c2ccc(NC(=O)C3(c4ccnc(NS(=O)(=O)C5CC5)n4)CCC(N(C)C)CC3)nc2)n1` (stereo in doubt; form 1), the Ratio IC50 in the experiment listed under Homo sapiens is more than 60.

On to `CCOc1cncc(-c2ccc(NC(=O)C3(c4ccnc(NS(=O)(=O)C5CC5)n4)CCC(O)CC3)nc2)n1` (stereo in doubt), for which the Ratio IC50 in the experiment listed under Homo sapiens was more than 60.

`CCOc1cncc(-c2ccc(NC(=O)C(C)(C)c3nc(NS(=O)(=O)C4CC4)ncc3F)cc2)n1`: in the experiment filed under Homo sapiens, the Ratio IC50 is 30.

Regarding `CCC(C(=O)Nc1ncc(-c2cncc(OC)n2)cc1F)c1ccnc(NS(=O)(=O)C2CC2)n1` (stereo not given), the Ratio IC50 in the experiment filed under Homo sapiens turned out to be 2.

With `CCOc1cncc(-c2ccc(NC(=O)C(C)(OC)c3cncc(NS(=O)(=O)C4CC4)n3)nc2)n1` (stereo in doubt; form 1), the Ratio IC50 in the experiment listed under Homo sapiens was more than 60.

In the case of `CCOc1cncc(-c2ccc(NC(=O)C3(c4ccnc(NS(=O)(=O)C5CC5)n4)CCC(O)CC3)nc2)n1` (single isomer, unassigned), the Ratio IC50 in the experiment filed under Homo sapiens came out at 2.

Take `CC(C)(C(=O)Nc1ccc(-c2cccnc2)cc1)c1ccnc(NS(=O)(=O)C2CC2)n1`: in the experiment listed under Homo sapiens, the Ratio IC50 was 2.

Usually IC50 stands for the concentration that gives 50% inhibition.
